Reference: patent publication US11279703B2, “Fused pyrimidine compounds as BRD4 and JAK2 dual inhibitors and methods for use thereof” (APTOSE BIOSCIENCES INC., priority 2016, dated 2022)

Experiments:
[1] = biological target: BRD4-BD2 (Homo sapiens (Human), UniProt O60885); assay: AlphaLisa bromodomain binding assay, BRD4-BD2; conditions: Table 6; read-out: BRD4(2) IC50
Source text: (§1) An AlphaLisa assay was used to observe bromodomain binding and measure IC50s for the compounds disclosed herein. An AlphaLisa assay is a bead-based assay used to detect interactions between bromodomains and polyacetylated histone peptides. Donor and acceptor beads bound to target and ligand are brought into proximity by this protein-protein interaction.
(§2) Equipment Required • 1. […] Plate centrifuge • 3. Plate shaker • 4. […] Single channel and multi-channel pipettes • 6. Microplate reader (Pherastar)
(§3) Stock and Final Assay Concentrations (FAC) • 1. All reference and test compounds are made at a concentration of 10 mM in DMSO. Compounds are serially diluted in DMSO and a FAC starting from 10 μM to 10 point 3 fold serial dilutions is arrived. FAC of DMSO is 1%. • 2. Enzyme stock and FAC
(§4) Biotinylated substrate (Acetylated histone H4, biotinylated substrate—cat no. AS64989-025, Anaspec) stock and FAC
(§5) • 4. Acceptor and donor beads stock and FAC
(§6) Buffers • For the enzyme and substrate dilution following buffer is used (for 50 ml) • HEPES: 50 mM 2.5 ml • NaCl: 25 mM 1.25 ml • DTT: 10 mM 0.05 ml • BSA: 0.1% 0.05 g • MilliQ water: 45.7 ml • For dilution of acceptor and donor beads AlphaLISA 5× epigenetics Buffer Perkin Elmer (Cat: AL008C) is used at 1× concentration.
(§7) Procedure • 1. […] Tap the plate gently • 3. […] Cover with plate sealer • 5. […] Incubate the plate at room temperature for 10 minutes • 7. Add 10 μl of the substrate • 8. Cover with plate sealer • 9. […] Cover with plate sealer • 14. […] Cover with plate sealer • 18.
(§8) The percent inhibition is calculated in the excel analysis template and the IC50 values are subsequently determined using a sigmoidal dose-response curve (variable slope) using GraphPad Prism® 5 software.

[2] = biological target: BRD2-BD1 (Homo sapiens (Human), UniProt P25440); assay: AlphaLisa bromodomain binding assay, BRD2-BD1; conditions: Table 6; read-out: BRD2(1) IC50
Source text: as §1, §2, §3, §4, §5, §6, §7, §8

[3] = biological target: JAK2 (Homo sapiens (Human), UniProt O60674); assay: HTRF kinase assay, JAK2; format: biochemical; conditions: Table 6
[4] = biological target: BRDT-BD1 (Homo sapiens (Human), UniProt Q58F21); assay: AlphaLisa bromodomain binding assay, BRDT-BD1; conditions: Table 6; read-out: BRDT(1) IC50
Source text: as §1, §2, §3, §4, §5, §6, §7, §8

[5] = biological target: JAK1 (Homo sapiens (Human), UniProt P23458); assay: HTRF kinase assay, JAK1; format: biochemical; conditions: Table 6
Source text: (§9) A kinase assay with HTRF was used to observe JAK activity and calculate the IC50s of compounds disclosed herein. HTRF is an enzymatic assay used to determine the amount of phosphorylated peptide. FRET (Fluorescence Resonance Energy Transfer) is based on the transfer of energy between two fluorophores—a donor and an acceptor—when in close proximity. Molecular interactions between biomolecules can be assessed by coupling each partner with a fluorescent label and by detecting the level of energy transfer. The amount of phopshorylated peptide can be detected using a combination of a Eu 3+Cryptate labeled anti-phospho residue antibody, SA-XL665 and a biotinylated substrate. The signal is proportional to the concentration of phospho-residues.
(§10) Equipment Required • 1. […] Plate centrifuge • 3. Plate shaker • 4. […] Single channel and multi-channel pipettes • 6. Microplate reader (Pherastar)]
as §3, with “arrived. For Ruxolitinib the starting FAC is 1 μM.” for “arrived.”
(§11) • JAK-1: Invtirogen Cat: PR8767C • JAK-2: Invtirogen Cat: PR7820B • JAK-3: Invtirogen Cat: PR7507B • 3. Substrate (synthetic peptide-Biotinylated-N-terminal tag-[…] from Biopeptide) stock and FAC
(§12) • Adenosine 5′-triphosphate disodium salt hydrate: Sigma Cat: A26209 • 5. […] Buffers • Base buffer (for 50 ml)
(§13) • HTRF buffer: • 50 mM Tris-HCl, pH—7.5 • 100 mM NaCl • 0.1% BSA • 0.05% Tween20 • 0.5 mM EDTA
(§14) To a 384 well black-plate: • 1. Add 17 μL of the buffer to each well of the 384-well black plate • 2. […] Add 5 μl of the enzyme to each well of the plate • 4. Add 10 μl of the substrate and ATP mix to all the wells • 5. Cover with plate sealer • 6. […] Incubate at room temperature for 1 hour on shaker • 8. […] Add 37.5 μL of the HTRF mix to these wells. • 9. Incubate the plate at room temperature on shaker for 45 minutes. • 10.
as §8

[6] = biological target: JAK3 (Homo sapiens (Human), UniProt P52333); assay: HTRF kinase assay, JAK3; format: biochemical; conditions: Table 6
Source text: as §9, §10
as §3, with “arrived. For Ruxolitinib the starting FAC is 1 μM.” for “arrived.”
as §11, §12, §13, §14, §8

[7] = biological target: BRD4-BD1 (Homo sapiens (Human), UniProt O60885); assay: AlphaLisa bromodomain binding assay, BRD4-BD1; conditions: Table 6; read-out: BRD4(1) IC50
[8] = biological target: BRD3-BD1 (Homo sapiens (Human), UniProt Q15059); assay: AlphaLisa bromodomain binding assay, BRD3-BD1; conditions: Table 6; read-out: BRD3(1) IC50
Source text: as §1, §2, §3, §4, §5, §6, §7, §8

BRD3-BD1, sequence (Q15059 34-140): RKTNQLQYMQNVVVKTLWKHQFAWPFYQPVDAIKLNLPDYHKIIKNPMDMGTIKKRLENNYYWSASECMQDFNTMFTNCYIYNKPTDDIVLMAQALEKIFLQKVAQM
BRD2-BD1, sequence (P25440 74-180): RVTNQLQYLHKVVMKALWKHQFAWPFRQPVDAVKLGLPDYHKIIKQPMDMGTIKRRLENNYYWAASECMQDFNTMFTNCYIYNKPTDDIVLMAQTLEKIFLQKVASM
JAK1, sequence (P23458 whole entry): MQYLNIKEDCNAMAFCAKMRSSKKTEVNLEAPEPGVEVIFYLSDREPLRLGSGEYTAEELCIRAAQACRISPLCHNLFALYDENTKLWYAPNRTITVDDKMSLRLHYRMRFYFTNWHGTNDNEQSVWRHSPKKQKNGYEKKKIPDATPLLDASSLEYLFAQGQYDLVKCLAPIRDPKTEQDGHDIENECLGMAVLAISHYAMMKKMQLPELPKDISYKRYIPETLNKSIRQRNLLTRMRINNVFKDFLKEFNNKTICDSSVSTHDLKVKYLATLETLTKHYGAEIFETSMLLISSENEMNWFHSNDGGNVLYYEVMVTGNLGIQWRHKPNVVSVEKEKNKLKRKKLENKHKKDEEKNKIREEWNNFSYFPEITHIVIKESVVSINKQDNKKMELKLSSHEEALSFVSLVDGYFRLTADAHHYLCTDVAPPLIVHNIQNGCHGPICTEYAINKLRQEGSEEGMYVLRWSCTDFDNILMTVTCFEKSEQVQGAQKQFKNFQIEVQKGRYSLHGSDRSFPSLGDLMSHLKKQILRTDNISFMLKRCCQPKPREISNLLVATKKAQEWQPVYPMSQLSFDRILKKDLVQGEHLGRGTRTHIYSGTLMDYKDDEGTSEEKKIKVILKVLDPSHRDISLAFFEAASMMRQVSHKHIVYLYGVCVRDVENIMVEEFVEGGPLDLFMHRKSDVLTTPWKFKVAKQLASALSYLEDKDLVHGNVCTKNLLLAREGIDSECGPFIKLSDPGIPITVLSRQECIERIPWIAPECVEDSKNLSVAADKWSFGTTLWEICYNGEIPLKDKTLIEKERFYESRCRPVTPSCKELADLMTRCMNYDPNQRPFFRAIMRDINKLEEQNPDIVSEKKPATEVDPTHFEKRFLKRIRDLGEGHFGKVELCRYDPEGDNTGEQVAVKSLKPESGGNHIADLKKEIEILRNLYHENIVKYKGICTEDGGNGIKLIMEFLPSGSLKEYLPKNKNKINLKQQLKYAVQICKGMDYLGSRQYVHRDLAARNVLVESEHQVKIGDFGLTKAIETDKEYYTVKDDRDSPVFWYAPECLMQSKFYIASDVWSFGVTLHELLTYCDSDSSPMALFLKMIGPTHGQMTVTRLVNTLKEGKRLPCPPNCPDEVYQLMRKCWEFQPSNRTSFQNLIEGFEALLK
JAK3, sequence (P52333 whole entry): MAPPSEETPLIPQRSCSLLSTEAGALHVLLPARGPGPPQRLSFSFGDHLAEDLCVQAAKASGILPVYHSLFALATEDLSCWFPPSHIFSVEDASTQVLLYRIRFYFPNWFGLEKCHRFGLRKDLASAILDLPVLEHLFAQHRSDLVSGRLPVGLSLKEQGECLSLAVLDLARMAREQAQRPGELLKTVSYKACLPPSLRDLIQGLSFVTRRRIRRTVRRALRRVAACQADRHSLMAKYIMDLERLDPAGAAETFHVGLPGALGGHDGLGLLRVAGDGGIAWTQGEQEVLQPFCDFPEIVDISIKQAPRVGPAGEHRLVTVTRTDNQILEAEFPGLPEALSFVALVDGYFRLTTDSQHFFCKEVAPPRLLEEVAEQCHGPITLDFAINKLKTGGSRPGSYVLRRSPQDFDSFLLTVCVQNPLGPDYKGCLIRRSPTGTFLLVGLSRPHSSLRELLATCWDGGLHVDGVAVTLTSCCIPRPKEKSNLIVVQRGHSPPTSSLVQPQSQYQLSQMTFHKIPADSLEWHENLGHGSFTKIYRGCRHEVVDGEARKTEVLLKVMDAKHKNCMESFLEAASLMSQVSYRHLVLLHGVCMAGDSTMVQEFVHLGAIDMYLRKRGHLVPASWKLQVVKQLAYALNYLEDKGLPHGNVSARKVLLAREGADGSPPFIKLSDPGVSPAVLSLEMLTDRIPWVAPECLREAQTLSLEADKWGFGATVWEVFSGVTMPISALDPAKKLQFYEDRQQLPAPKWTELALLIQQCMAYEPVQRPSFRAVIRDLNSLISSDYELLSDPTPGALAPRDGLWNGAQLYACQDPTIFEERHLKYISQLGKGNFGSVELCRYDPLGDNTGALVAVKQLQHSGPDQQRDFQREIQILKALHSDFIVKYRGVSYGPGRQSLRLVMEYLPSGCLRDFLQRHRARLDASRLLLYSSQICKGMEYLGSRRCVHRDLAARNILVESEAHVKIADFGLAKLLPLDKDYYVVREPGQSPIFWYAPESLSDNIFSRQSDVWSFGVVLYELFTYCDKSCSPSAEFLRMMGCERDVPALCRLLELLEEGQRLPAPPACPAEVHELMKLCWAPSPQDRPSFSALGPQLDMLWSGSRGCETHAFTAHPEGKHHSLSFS
JAK2, sequence (O60674 whole entry): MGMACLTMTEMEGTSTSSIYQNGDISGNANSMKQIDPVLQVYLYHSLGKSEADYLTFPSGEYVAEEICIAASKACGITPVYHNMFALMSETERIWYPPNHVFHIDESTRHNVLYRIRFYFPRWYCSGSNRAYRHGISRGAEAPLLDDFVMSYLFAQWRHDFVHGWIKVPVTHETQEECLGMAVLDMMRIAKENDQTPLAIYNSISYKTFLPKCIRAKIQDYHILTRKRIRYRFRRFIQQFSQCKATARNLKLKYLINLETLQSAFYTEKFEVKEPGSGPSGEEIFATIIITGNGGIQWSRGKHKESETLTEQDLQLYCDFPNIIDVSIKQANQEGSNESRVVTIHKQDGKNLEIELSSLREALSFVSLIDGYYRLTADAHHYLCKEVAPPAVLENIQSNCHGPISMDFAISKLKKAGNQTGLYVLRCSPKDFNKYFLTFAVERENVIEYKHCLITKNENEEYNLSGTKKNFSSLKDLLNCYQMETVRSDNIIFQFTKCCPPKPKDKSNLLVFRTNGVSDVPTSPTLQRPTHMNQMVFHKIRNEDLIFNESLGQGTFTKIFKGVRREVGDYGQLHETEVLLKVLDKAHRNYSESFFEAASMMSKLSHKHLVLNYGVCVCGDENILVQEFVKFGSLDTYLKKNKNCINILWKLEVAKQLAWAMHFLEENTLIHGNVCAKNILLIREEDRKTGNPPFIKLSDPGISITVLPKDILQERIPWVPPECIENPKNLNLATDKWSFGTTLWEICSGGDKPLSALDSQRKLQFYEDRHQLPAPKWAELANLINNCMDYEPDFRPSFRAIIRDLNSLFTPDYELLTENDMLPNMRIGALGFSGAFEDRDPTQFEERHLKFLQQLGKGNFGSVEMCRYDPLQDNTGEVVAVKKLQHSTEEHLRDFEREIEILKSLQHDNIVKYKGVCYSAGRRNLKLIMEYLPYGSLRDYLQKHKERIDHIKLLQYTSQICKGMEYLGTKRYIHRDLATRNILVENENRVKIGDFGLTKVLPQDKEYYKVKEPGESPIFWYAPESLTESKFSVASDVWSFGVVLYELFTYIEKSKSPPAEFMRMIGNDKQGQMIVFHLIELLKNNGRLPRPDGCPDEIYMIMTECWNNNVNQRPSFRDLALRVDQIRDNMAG

CN1CCN(c2ccc(Nc3ncc4ccn(-c5ccc(F)c(NS(=O)(=O)C(C)(C)C)c5)c4n3)cc2)CC1 [drawing 295]
IC50 [1]: 67.5 nM | IC50 [2]: 490 nM | IC50 [3]: 35 nM | IC50 [4]: 182 nM | IC50 [5]: 972 nM | IC50 [6]: 105 nM | IC50 [7]: 128 nM | IC50 [8]: 109 nM

CN(C)C1CCN(C(=O)c2ccc(Nc3ncc4ccn(-c5cccc(NS(=O)(=O)C(C)(C)C)c5)c4n3)cc2F)CC1
IC50 [1]: 29 nM | IC50 [2]: 318 nM | IC50 [3]: 20 nM | IC50 [4]: 189 nM | IC50 [5]: 1100 nM | IC50 [6]: 292 nM | IC50 [7]: 246 nM | IC50 [8]: 117 nM

CNC1CCN(c2ccc(Nc3ncc4scc(-c5ccc(F)c(NS(=O)(=O)C(C)(C)C)c5)c4n3)cc2F)CC1 [drawing 458]
IC50 [1]: 92 nM | IC50 [2]: 670 nM | IC50 [3]: 10 nM | IC50 [4]: 223 nM | IC50 [5]: 1200 nM | IC50 [6]: 82 nM | IC50 [7]: 192 nM | IC50 [8]: 154 nM

O=S(=O)(Nc1cccc(-n2ccc3cnc(Nc4ccc(N5CCNCC5)cc4)nc32)c1)C1CC1 [drawing 296]
IC50 [1]: 574 nM | IC50 [2]: 2960 nM | IC50 [3]: 2 nM | IC50 [4]: 1210 nM | IC50 [5]: 188 nM | IC50 [6]: 15 nM | IC50 [7]: 677 nM | IC50 [8]: 914 nM

CN1CCC(NC(=O)c2ccc(Nc3ncc4ccn(-c5cccc(NS(=O)(=O)C(C)(C)C)c5)c4n3)cc2F)CC1
IC50 [1]: 156 nM | IC50 [2]: 314 nM | IC50 [3]: 11.5 nM | IC50 [4]: 230 nM | IC50 [5]: 57 nM | IC50 [6]: 103 nM | IC50 [7]: 240 nM | IC50 [8]: 89 nM

CN(C)C1CCN(c2ccc(Nc3ncc4ccn(-c5cccc(NS(=O)(=O)C(C)(C)C)c5)c4n3)cc2)CC1 [drawing 317]
IC50 [1]: 62 nM | IC50 [2]: 632 nM | IC50 [3]: 7.3 nM | IC50 [4]: 406 nM | IC50 [5]: 400 nM | IC50 [6]: 81 nM | IC50 [7]: 173 nM | IC50 [8]: 164 nM

CC(C)(C)S(=O)(=O)Nc1cccc(-c2csc3cnc(Nc4ccc5c(c4)CCN4CCNCC54)nc23)c1 (stereo not drawn)
IC50 [1]: 131 nM | IC50 [2]: 489 nM | IC50 [3]: 2 nM | IC50 [4]: 281 nM | IC50 [5]: 44 nM | IC50 [6]: 18 nM | IC50 [7]: 109 nM | IC50 [8]: 100 nM

CC(C)(C)S(=O)(=O)Nc1cc(-n2ccc3cnc(Nc4cc(F)c5c(c4)CC4CNCCN54)nc32)ccc1F (stereo not drawn) [drawing 465]
IC50 [1]: 120 nM | IC50 [2]: 353 nM | IC50 [3]: 61 nM | IC50 [4]: 292 nM | IC50 [5]: 10000 nM | IC50 [6]: 285 nM | IC50 [7]: 115 nM | IC50 [8]: 83 nM

CC(C)(C)S(=O)(=O)Nc1cc(-n2ccc3cnc(Nc4cc(F)c5c(c4)CC4CNCCN54)nc32)ccc1F (stereo not drawn) [drawing 443]
IC50 [1]: 85 nM | IC50 [2]: 235 nM | IC50 [3]: 40 nM | IC50 [4]: 185 nM | IC50 [5]: 3700 nM | IC50 [6]: 206 nM | IC50 [7]: 79 nM | IC50 [8]: 81 nM

CC(C)(C)S(=O)(=O)Nc1cccc(-c2csc3cnc(Nc4ccc(N5CCNCC5)c(F)c4)nc23)c1
IC50 [1]: 193 nM | IC50 [2]: 506 nM | IC50 [3]: 2 nM | IC50 [4]: 308 nM | IC50 [5]: 169 nM | IC50 [6]: 61 nM | IC50 [7]: 295 nM | IC50 [8]: 181 nM

CN(C)C1CCN(c2ccc(Nc3ncc4scc(-c5ccc(F)c(NS(=O)(=O)C(C)(C)C)c5)c4n3)cc2F)CC1
IC50 [1]: 91 nM | IC50 [2]: 292 nM | IC50 [3]: 8 nM | IC50 [4]: 177 nM | IC50 [5]: 927 nM | IC50 [6]: 97 nM | IC50 [7]: 108 nM | IC50 [8]: 110 nM

COc1cc(Nc2ncc3ccn(-c4cccc(NS(=O)(=O)C(C)(C)C)c4)c3n2)ccc1N1CCNCC1
IC50 [1]: 128 nM | IC50 [2]: 548 nM | IC50 [3]: 2.8 nM | IC50 [4]: 320 nM | IC50 [5]: 275 nM | IC50 [6]: 112 nM | IC50 [7]: 402 nM | IC50 [8]: 142 nM
